According to patent US7807384B2, “Low density lipoprotein binding proteins and their use in diagnosing and treating atherosclerosis” (Boston Heart Foundation, Inc., priority 1996, dated 2010):

Columns and labels:
LBP-1/LDL binding = biological target: T1, LBP-1/LDL binding (Homo sapiens, UniProt P04114); assay: ACE assay of LBP-1/LDL binding in the presence of inhibitors; parameters: species or system rabbit; details: LDL 148 nM in gel; increasing inhibitor (polyglutamic acid 0-0.4 nM; BHF-1 0-10 nM)
T1 construct: the sizes of the recombinant proteins were determined to be 16.2 kDa for LBP-1; LDL was prepared from the plasma of normolipemic donors; 6-histidine tag (N); made in house; host or cells: E. coli DH10B, pPROEX-HT (LBP-1); LDL from human donor plasma
T1 sequence (P04114 28-4563): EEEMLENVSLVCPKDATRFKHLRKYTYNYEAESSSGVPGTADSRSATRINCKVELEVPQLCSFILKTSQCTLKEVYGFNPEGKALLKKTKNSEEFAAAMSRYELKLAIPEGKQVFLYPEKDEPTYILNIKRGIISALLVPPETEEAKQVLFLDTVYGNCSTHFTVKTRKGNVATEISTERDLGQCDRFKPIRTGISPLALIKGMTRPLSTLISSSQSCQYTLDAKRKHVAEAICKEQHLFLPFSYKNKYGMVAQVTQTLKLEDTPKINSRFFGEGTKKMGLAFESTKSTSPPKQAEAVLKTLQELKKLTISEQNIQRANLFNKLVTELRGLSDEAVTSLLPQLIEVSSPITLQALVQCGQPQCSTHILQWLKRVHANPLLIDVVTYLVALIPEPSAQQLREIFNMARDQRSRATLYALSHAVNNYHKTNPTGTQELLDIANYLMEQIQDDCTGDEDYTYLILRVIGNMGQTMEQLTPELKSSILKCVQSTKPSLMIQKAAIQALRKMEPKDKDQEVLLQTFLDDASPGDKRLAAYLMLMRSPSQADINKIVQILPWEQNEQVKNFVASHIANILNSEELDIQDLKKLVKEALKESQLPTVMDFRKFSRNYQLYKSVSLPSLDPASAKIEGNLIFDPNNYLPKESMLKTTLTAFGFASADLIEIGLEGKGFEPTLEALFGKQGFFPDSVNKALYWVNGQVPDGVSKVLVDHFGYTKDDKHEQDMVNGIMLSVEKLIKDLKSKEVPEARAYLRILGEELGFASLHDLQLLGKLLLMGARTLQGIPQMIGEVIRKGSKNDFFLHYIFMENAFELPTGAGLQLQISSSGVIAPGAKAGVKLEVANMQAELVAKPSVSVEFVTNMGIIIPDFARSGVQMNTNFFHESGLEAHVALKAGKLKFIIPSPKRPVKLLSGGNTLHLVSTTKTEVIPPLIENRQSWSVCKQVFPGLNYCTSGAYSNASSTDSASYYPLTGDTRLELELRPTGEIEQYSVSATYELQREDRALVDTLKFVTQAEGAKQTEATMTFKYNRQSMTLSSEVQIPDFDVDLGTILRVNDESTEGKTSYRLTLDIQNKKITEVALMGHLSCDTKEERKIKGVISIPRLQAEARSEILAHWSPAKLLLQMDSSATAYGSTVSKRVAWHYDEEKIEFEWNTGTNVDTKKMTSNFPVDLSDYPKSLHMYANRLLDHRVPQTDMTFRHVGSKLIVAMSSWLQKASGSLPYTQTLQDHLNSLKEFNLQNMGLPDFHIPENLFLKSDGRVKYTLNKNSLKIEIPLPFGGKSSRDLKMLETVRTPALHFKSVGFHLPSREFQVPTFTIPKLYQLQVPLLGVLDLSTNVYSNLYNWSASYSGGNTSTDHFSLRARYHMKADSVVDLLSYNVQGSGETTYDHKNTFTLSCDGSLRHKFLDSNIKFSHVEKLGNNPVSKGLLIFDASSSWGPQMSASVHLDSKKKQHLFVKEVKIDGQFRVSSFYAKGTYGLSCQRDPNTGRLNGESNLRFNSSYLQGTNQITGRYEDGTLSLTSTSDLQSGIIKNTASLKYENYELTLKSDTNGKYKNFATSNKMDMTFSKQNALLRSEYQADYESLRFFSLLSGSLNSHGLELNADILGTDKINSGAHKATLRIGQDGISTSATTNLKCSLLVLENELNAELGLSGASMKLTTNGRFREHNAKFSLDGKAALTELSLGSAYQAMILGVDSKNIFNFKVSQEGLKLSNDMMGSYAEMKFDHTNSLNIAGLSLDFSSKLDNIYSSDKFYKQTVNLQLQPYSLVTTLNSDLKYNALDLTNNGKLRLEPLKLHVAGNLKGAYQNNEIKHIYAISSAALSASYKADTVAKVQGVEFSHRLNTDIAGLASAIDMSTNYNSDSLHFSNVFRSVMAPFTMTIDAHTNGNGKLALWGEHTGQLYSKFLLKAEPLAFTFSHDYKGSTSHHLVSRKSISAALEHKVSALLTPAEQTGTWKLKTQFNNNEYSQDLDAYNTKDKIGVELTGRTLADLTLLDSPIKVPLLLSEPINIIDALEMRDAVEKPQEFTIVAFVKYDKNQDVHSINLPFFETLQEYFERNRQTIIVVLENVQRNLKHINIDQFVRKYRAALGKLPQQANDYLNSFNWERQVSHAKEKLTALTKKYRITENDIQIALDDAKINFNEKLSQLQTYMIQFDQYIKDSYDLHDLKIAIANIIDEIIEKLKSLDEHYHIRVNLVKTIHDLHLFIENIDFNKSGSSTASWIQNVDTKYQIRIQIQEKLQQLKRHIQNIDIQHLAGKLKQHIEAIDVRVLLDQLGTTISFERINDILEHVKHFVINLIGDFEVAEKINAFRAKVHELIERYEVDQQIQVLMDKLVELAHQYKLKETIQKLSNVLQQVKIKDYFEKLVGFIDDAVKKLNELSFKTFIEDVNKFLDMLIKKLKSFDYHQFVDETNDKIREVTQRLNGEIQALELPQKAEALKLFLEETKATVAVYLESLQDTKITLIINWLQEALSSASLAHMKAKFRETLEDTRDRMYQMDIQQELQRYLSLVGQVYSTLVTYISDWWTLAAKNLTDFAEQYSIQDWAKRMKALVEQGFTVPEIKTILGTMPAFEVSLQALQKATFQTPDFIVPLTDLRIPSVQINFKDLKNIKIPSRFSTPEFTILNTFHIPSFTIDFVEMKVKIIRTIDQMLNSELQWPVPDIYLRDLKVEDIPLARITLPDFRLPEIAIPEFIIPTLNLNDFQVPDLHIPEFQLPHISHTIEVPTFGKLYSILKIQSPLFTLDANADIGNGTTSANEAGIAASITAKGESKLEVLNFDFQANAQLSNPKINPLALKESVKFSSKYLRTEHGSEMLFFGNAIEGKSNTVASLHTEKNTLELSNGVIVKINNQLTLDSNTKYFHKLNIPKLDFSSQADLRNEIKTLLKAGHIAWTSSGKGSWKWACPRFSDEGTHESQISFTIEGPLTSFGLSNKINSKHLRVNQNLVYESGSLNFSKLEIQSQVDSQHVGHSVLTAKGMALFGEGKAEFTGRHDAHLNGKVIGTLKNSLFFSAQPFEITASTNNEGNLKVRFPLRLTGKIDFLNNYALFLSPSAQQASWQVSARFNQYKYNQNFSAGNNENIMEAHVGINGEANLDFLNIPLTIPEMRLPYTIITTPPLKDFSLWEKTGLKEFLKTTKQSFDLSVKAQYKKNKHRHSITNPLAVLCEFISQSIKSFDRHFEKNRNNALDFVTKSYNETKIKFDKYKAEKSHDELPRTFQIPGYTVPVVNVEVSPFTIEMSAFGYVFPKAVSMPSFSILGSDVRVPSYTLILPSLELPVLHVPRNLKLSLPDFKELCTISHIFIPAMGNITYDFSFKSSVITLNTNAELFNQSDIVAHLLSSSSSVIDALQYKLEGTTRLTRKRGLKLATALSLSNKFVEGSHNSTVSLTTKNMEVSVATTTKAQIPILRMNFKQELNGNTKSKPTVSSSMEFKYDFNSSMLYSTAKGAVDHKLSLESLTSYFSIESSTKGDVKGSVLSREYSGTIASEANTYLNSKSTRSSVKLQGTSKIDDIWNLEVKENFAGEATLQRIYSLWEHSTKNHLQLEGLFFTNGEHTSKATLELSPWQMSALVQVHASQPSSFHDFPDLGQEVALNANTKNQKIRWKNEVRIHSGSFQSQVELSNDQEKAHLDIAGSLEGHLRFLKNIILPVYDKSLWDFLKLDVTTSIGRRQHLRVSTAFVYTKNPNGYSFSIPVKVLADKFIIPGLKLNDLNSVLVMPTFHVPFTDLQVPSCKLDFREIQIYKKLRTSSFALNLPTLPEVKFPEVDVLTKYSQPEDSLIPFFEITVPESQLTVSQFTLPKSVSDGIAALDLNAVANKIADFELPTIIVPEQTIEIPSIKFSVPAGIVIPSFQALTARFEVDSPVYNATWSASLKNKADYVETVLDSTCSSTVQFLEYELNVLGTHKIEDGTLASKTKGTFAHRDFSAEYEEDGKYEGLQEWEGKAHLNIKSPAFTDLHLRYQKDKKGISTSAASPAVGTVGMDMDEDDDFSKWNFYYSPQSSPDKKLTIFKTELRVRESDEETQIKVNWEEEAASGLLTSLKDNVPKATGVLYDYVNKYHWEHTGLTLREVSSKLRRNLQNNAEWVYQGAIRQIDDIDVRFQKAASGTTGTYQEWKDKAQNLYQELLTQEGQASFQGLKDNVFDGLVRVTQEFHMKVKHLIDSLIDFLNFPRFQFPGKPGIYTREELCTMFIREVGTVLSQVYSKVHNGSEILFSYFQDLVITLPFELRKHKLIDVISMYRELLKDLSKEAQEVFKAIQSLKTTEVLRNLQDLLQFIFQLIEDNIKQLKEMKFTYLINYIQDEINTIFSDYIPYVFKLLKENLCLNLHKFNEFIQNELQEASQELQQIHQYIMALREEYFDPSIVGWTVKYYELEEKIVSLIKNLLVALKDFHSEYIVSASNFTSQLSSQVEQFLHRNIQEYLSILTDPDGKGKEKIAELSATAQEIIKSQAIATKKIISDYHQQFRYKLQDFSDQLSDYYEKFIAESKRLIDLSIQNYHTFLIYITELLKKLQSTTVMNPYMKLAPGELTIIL
Protocol: (§1) This example illustrates that binding between LBP-1 or LBP-2 and LDL is inhibited by polyglutamic acid or BHF-1. The ability of a third compound to inhibit binding between two proteins previously shown to interact was tested by a modification of the ACE assays described in Example 8. The third compound was added to the top or wells together with the radiolabeled protein.
(§2) Inhibition of LBP-1/LDL or LBP-2/LDL binding by polyglutamic acid (average MW about 7500, corresponding to about […]) was shown by casting a constant amount of LDL (148 nM) in all the rectangular lanes. A constant amount (1 μl) of ^125I-labeled LBP-1 or LBP-2 (0.003 nM-0.016 nM) was loaded in the wells at the top of the gel, together with increasing concentrations of polyglutamic acid (obtained from Sigma) (0-0.4 nM). The gel was electrophoresed at 70 volts for 2 hr, dried and placed on X-ray film, with intensifying screens, overnight at −70° C. before the film was developed to determine the retardation profile of LBP-1 and LBP-2.
Inhibition of LBP-1/LDL binding by BHF-1 was shown by casting a constant amount of LDL (148 nM) in all the rectangular lanes. A constant amount of ^125I-labeled LBP-1 (0.003 nM-0.016 nM) was loaded in the wells at the top of the gel, together with increasing concentrations of BHF-1 (0-10 nM), obtained as described in Example 15. […]

LBP-2/LDL binding = biological target: T2, LBP-2/LDL binding (Homo sapiens, UniProt P04114); assay: ACE assay of LBP-2/LDL binding in the presence of inhibitors; parameters: species or system rabbit; details: LDL 148 nM in gel; polyglutamic acid 0-0.4 nM
T2 construct: LDL was prepared from the plasma of normolipemic donors; 6-histidine tag (N); made in house; host or cells: E. coli DH10B, pPROEX-HT (LBP-2); LDL from human donor plasma
T2 sequence (P04114 28-4563): as above
Protocol: as §1, §2

recombinant LBP-2 = assay: ELISA plate assay, binding of LDL to recombinant LBP-2; details: ELISA format
Protocol: (§3) In one example, the ELISA assay was carried out as follows: LDL was diluted in 50 mM Na2HCO3, pH 9.6/0.02% NaN3 and added to the wells of a 96-well plate (ImmunoWare 96-Well Reacti-Bind EIA Polystyrene Plates; Pierce (Rockford, Ill.)) to achieve a final concentration ranging from 0.1 to 1 μg/well. The plates were incubated for 6 hr at room temperature. At the end of the incubation period, the wells were washed 3 times with Tris-buffered saline, pH 7.4 (TBS), and blocked overnight with 200 μl of 1% bovine serum albumin (BSA) in TBS/0.02% NaN3 (Sigma; St. Louis Mo.) at room temperature. The wells were then incubated with 200 μl of LBP protein (5-10 μg/well) in TBS and varying concentrations of the test compound. Plates were incubated for 1 hr at room temperature. The wells were then washed three times with TBS and blocked for 2 hr with 200 μl of 1% BSA in TBS/0.02% NaN3 at room temperature. At the end of the incubation period, the wells were washed 3 times with TBS and a 1:1000 dilution (in TBS/0.05% Tween 20) of the appropriate guinea pig anti-LBP protein polyclonal antibody was added to the wells and incubated for 1 hr at room temperature. […] The absorbance was determined at 405 nm using an ELISA plate reader. The test compound's effectiveness in blocking the binding of LDL to the recombinant protein was assessed by comparing the absorbance values of control and treated groups. […]

[1] = tested on: ballooned deendothelialized rabbit aorta; assay: Radiolabeled LDL accumulation in ballooned deendothelialized abdominal aorta after active immunization; type: in vivo; details: immunized with RIBI adjuvant; corrected for dosage and percent reendothelialization; 24 hr after 125I-LDL
Protocol: Immunity was induced in male New Zealand White rabbits (Hazelton Research Products, Denver, Pa.) as follows: A mixture of purified human recombinant LBP-2 or BHF-1 peptide (1 ml; 1 mg) and RIBI adjuvant (RIBI ImmunoChem Research, Inc., Hamilton, Mont.) was injected subcutaneously at 2-5 sites along the dorsal thoracic and abdominal regions of the rabbits. Blood was collected by venipuncture on days 1 (preimmune bleeding), 35, 63, and 91. Booster injections were administered on days 28 (500 μg; SC), 56 (250 μg; SC), and 84 (125 μg; SC).
On day 93, the abdominal aorta of immunized and control rabbits was deendothelialized using a Fogarty number 4 embolectomy catheter (Chang et al., Arteriosclerosis and Thrombosis 12:1088-1098 (1992)). Four weeks after ballooning, rabbits received a bolus injection of ^125I-labeled LDL (1 ml; i.v.). […] Blood samples were centrifuged for 30 min at 2000 rpm ([…]) and total activity present in the serum was determined using a Gamma counter. Total TCA precipitable counts were determined by addition of TCA to the serum to a final concentration of 10% followed by incubation for 10 min at 4° C. Serum samples were then centrifuged (2000 rpm; 30 min; […]) and total activity present in the supernate was determined. TCA precipitable counts were calculated by subtraction: total soluble counts minus counts present in the supernate after TCA precipitation. […]

[2] = tested on: LDL receptor (LDLR) knockout mice; assay: Aortic cholesterol content in BHF-1-immunized LDLR knockout mice; type: in vivo, mouse; details: 30 weeks of age, modified Western Type diet, P>0.037 as printed
Protocol: An immunization experiment was performed with the BHF-1 peptide. LDL receptor (LDLR) knockout mice (B6,129S-Ldlr^tmlHer, Jackson Laboratories, Bar Harbor, Me.) were injected with the BHF-1 peptide (see Example 15 for methods of synthesizing the BHF-1 peptide) together with an RIBI adjuvant (RIBI ImmunoChem Research, Inc., Hamilton, Mont.). LDLR knockout mice are hyperlipidemic and thus a model for human atherosclerosis. LDLR knockout mice have high levels of plasma cholesterol and develop naturally-occurring atherosclerotic-like lesions.
Four week old LDLR knockout mice were ear tagged, randomly assigned to different cages and weighed. Body weights were subsequently determined weekly. Animals were allowed to habituate for one week prior to experimentation. […]
Mice in the experimental group received subcutaneous injections (9.99 μg/g body weight; 200 μl final volume) of the BHF-1.20.L peptide daily for 2 weeks, from 5 to 7 weeks of age, prior to the initial injection with the peptide and adjuvant. […] Titer was defined as the maximum dilution of serum that yielded a change in absorbance equivalent to 2× that of control serum (60 min; 37° C.). […]
At 30 weeks of age, the mice were sacrificed and aorta were removed as described in Example 22. Aortic atherosclerosis was measured by the cholesterol extraction method described in Example 22, whereby cholesterol is determined as a unit weight of artery.

recombinant LBP-1 = biological target: T3, recombinant LBP-1 (Homo sapiens, UniProt P04114); assay: ELISA plate assay, binding of LDL to recombinant LBP-1; details: ELISA format
T3 construct: the sizes of the recombinant proteins were determined to be 16.2 kDa for LBP-1; 6-histidine tag (N); made in house; host or cells: E. coli DH10B, pPROEX-HT (LBP-1); LDL from human donor plasma
T3 sequence (P04114 28-4563): as above
Protocol: as §3

[3] = Body weight and serum lipids of BHF-1-immunized LDLR knockout mice; type: in vivo, mouse
Excerpt: Four week old LDLR knockout mice were ear tagged, randomly assigned to different cages and weighed. Body weights were subsequently determined weekly. Animals were allowed to habituate for one week prior to experimentation. Normal rodent chow was provided ad libitum and animals were maintained in a 12:12 light:dark cycle. Animals were divided into experimental and control groups, as follows: (1) experimental, 16 mice were immunized with the BHF-1.20.L peptide; (2) control, 8 mice were immunized against bovine serum albumin.
Blood samples were analyzed for total cholesterol, HDL cholesterol, and triglyceride concentration, using commercially available total cholesterol and triglycerides assay kits (Sigma, St. Louis Mo.) (ELISA). HDL concentration was determined after Apo B containing lipoproteins were precipitated using heparin/MnCl2.
When fed a normal rodent chow, total serum cholesterol concentration in LDLR knockout mice remains relatively low. A high fat diet, on the other hand, results in an increase in total serum cholesterol concentration in these mice. The animals were thus switched at 16 weeks of age to a modified “Western Type” diet (0.1% cholesterol content) (Harland Teklad, Madison, Wis.) and fed ad libitum. This diet was expected to increase the total serum cholesterol concentration to a range of 600-800 mg/dl, thereby increasing the rate of lesion formation. […]

Substance	Inhibition of binding between LBP-1 and LDL (LBP-1/LDL binding)	Inhibition of binding between LBP-2 and LDL (LBP-2/LDL binding)	Binding of LDL to recombinant LBP-2 (recombinant LBP-2)	Accumulation of radiolabeled LDL in ballooned abdominal aorta versus nonimmune-ballooned rabbits [1]	Less aortic cholesterol content as compared to control mice [2] [%]	Binding of LDL to recombinant LBP-1 (recombinant LBP-1)	Effect of immunization on body weight [3]
polyglutamic acid [reference compound]	inhibited binding	inhibited binding	–	–	–	–	–
val-asp-val-asp-glu-tyr-asp-glu-asn-lys-phe-val-asp-glu-glu-asp-gly-gly-asp-gly (VDVDEYDENKFVDEEDGGDG; listed as Homo sapiens) [BHF-1]	inhibited binding	–	reduce the binding	lower accumulation	24	reduce the binding	no effect
